# Legend:
# [1] = species: Cavia porcellus; assay: Concentration inhibiting electrically induced contraction of guinea pig ileum(GPI).; format: functional, organism-based
# [2] = system: Rattus norvegicus; assay: Effective dose was measured using in vivo rat hot plate test after intrathecal injection; format: functional; conditions: central
# [3] = Selectivity Ratio of IC50 of MVD to IC50 of GPI; format: functional
# [4] = species: Mus musculus; assay: Potency to inhibit electrically induced contraction of mouse vas deferens(MVD) relative to [Leu5]-enkephalin.; format: functional
# [5] = species: Cavia porcellus; assay: Potency to inhibit electrically induced contraction of guinea pig ileum(GPI) relative to [Leu5]-enkephalin.; format: functional
# [6] = system: Mus musculus; assay: Concentration inhibiting electrically induced contraction of mouse vas deferens(MVD) at an ED50 of 0.15(ug/kg).; format: functional, organism-based
# [7] = system: Cavia porcellus; assay: Concentration inhibiting electrically induced contraction of guinea pig ileum(GPI) at an ED50 of 0.15(ug/kg).; format: functional, organism-based
compound,measurement,setting,value
NC(=O)[C@@H]1CSSC[C@@H](NC(=O)[C@@H](N)Cc2ccc(O)cc2)C(=O)NCC(=O)N[C@@H](Cc2ccccc2)C(=O)N1 [listing 1 of 2 here],IC50,[1],1.51 nM
CN1CC[C@]23c4c5ccc(O)c4O[C@H]2[C@@H](O)C=C[C@H]3[C@H]1C5 [MORPHINE],ED50,[2],5.6 µg/kg
NC(=O)[C@H]1CSSC[C@H](NC(=O)[C@@H](N)Cc2ccc(O)cc2)C(=O)NCC(=O)N[C@H](Cc2ccccc2)C(=O)N1,Ratio,[3],0.503
NC(=O)[C@@H]1CSSC[C@@H](NC(=O)[C@@H](N)Cc2ccc(O)cc2)C(=O)NCC(=O)N[C@@H](Cc2ccccc2)C(=O)N1 [listing 2 of 2 here],Relative potency,[4],17
same,Relative potency,[5],132
NC(=O)[C@@H]1CSC[C@@H](NC(=O)[C@@H](N)Cc2ccc(O)cc2)C(=O)NCC(=O)N[C@@H](Cc2ccccc2)C(=O)N1,IC50,[6],0.54 nM
same,IC50,[7],0.62 nM
same,Relative potency,[4],21
same,Ratio,[3],0.882
same,Relative potency,[5],396
same,ED50,[2],0.15 µg/kg
CC(C)C[C@H](NC(=O)[C@H](Cc1ccccc1)NC(=O)CNC(=O)CNC(=O)[C@@H](N)Cc1ccc(O)cc1)C(=O)O [ENKEPHALIN],ED50,[2],> 100 µg/kg
